Measured values as given in PubChem BioAssay AID179 (DTP/NCI, 2004).
Activity calls are given as the source filed them.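 How the source made its calls: active means compounds giving half or more protection of infected cells from virus-caused growth loss, again on retest; inactive means the rest.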 Where a SMILES comes first, the peptide text is derived from it.

System: CEM cells HIV-1 protection, formazan growth assay
Experiment: NCI AIDS Antiviral Assay
Settings: for IC50: measured here: growth of uninfected CEM cells
Outline: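 Five concentrations of each compound were applied to infected and uninfected human CEM cells. Protection from HIV-1 was judged from growth measured with a soluble formazan assay.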

SMILES | EC50 [µM] | IC50 [µM] | outcome
COc1ccc(N=Nc2c(-c3ccccc3)nn(C(=O)CC(=O)Nc3ccc(OC)cc3)c2-c2ccccc2)cc1 | > 25.1 | > 25.1 | –
C[C@]12CC[C@H](OC(=O)CCC(=O)O)CC1=CC[C@@H]1C2CC[C@@]2(C)C1CC[C@@H]2c1ncc(-c2ccccc2)s1 (stereo not given in full) | > 9.33 | > 9.33 | –
CC(C)N1CCOC12CCCC2 | > 200 | 29.5 | –
O=C1[C@@H](c2ccc(Cl)cc2)[C@H]2CC=C[C@H]2N1O | > 355 | 61.7 | –
O=C(CCc1ccccc1)NCCc1ccc(O)c(O)c1 | > 200 | 14.8 | –
CCOC(=O)c1cc(-c2ccc(Cl)cc2)c([N+](=O)[O-])n1C | > 200 | 26.9 | –
CCOP(=O)(OCC)/C(C#N)=C/c1c(C)[nH]c2ccccc12 | > 200 | 158 | –
N#Cc1c(N2CCCCC2)[nH]c(=O)n(-c2ccccc2)c1=S | > 200 | > 200 | –
Cc1c(C(=O)Nc2ccc(Cl)cc2)nc(N)nc1-c1cccc(Cl)c1 | > 174 | > 174 | –
N#CCC(=O)NC1C2CC3CC(C2)CC1C3 (stereo not given) | > 229 | 34.7 | –
Nc1ncc(C2[C@H](CNC(=O)c3cc(Br)c[nH]3)C(CNC(=O)c3cc(Br)c[nH]3)[C@@H]2c2cnc(N)[nH]2)[nH]1 (stereo not given in full) | – | – | active
c1ccc(C(NC2CCCCC2NCCNC2CCCCC2NC(c2ccccc2)(c2ccccc2)c2ccccc2)(c2ccccc2)c2ccccc2)cc1 (stereo not given) | > 200 | 6.17 | –
CC(C)/C(Cl)=N\OC(=O)Nc1cccc(Cl)c1 | > 200 | 5.01 | –
C#CCNC(=O)NCCCCC(NC(=O)OCc1ccccc1)C(=O)OCc1ccccc1 (stereo not given) | > 151 | 97.7 | –
CCCCCC#CCOC(=O)C(=[N+]=[N-])P(=O)(c1ccccc1)c1ccccc1 | > 200 | 95.5 | –
CC(C)CC1[C@@H](OCc2ccccc2)COS(=O)(=O)N1Cc1ccccc1 (stereo not given in full) | > 200 | 77.6 | –
O=S1(=O)OCCCO1 | > 1820 | > 1820 | –
O=[N+]([O-])c1ccc(N=C/C=C/Nc2ccc([N+](=O)[O-])cc2)cc1 | > 200 | 52.5 | –
CC1OC(O[C@@H]2C=C3CC[C@@H]4[C@H](CC[C@]5(C)[C@@H](c6ccc(=O)oc6)CC[C@]45O)[C@@]3(C)CC2)C(O)C(O)C1O (stereo not given in full) | > 2 | 0.00468 | –
O=C1Nc2ccc(Cl)cc2C(=O)N2CCC[C@@H]12 | > 200 | > 200 | –
O=c1ccc2nc3cc(Cl)ccc3sc-2c1 | > 8.13 | 2.19 | –
O=C(N/C(=C\c1ccccc1Cl)c1nc2ccccc2[nH]1)c1ccccc1 | – | – | inactive

SMILES | EC50 [µM] | IC50 [µM] | outcome
CCCCC/C=C\CCC/C=C\CCCCCCOP(=O)(O)OCCC=C(c1cc(Cl)c(O)c(C(=O)O)c1)c1cc(Cl)c(O)c(C(=O)O)c1 | > 126 | 83.2 | –
CCC(C)C1(C2CCCC2)NC(=O)NC1=O (stereo not given) | > 200 | > 200 | –
O=c1[nH]c(=O)ss1 | > 105 | > 100 | –
O=C(CCc1ccc(O)cc1)NCCc1cccc(O)c1 | 43.7 | > 100 | –
O=C(CC1(O)C(=O)Nc2c(Cl)ccc(Cl)c21)c1ccc(Cl)cc1Cl (stereo not given) | > 12.9 | > 12.9 | –
O=S(OCC1COS(=O)O1)OCC1COS(=O)O1 (stereo not given) | > 776 | 77.6 | –
Cc1cc(C)c2c(c1)C/C(=C\c1cccc(C)c1C(=O)O)C2=O | > 200 | 129 | –
O=C(/C=C/c1ccc(O)cc1)c1cc(Cl)ccc1O | – | – | inactive
COc1ccc2c(c1)OC(c1ccccc1O)CC2=O (stereo not given) | > 186 | 30.2 | –
CC(NC(=O)C(CO)NC(=O)C(C)NC(=O)C(C)NC(=O)C(CC(N)=O)NC(=O)CN)C(N)=O (stereo not given) (H-GNAASA-NH2; configuration not given here) | – | – | inactive
S=C1SC(c2ccc(Cl)cc2)(c2ccc(Cl)cc2)c2ccccc21 | > 200 | 123 | –
O=c1c2cc(Br)ccc2[nH]c(=S)n1-c1ccccc1 | > 40.7 | > 40.7 | –
COC(=O)c1c2c(cc3c1CC1(Cc4cc5c(c(C)c4C1)CCC5)C3)CCC2 (stereo not given) | > 200 | > 200 | –
[Cu].c1ccc2c3[n-]c(c2c1)/N=c1\[n-]/c(c2ccccc12)=N\c1[n-]c(c2ccccc12)/N=c1\[n-]/c(c2ccccc12)=N\3 | > 200 | 51.3 | –
COc1ccc(CSc2nc3ccccc3nc2-c2cccs2)cc1 | > 3.98 | > 3.98 | –
O=S(=O)(O)c1ccc2c(N=Nc3ccc(S(=O)(=O)O)c4ccccc34)c(O)c(S(=O)(=O)O)cc2c1 | > 100 | > 100 | inactive
O=S(=O)(C=C=CCO)c1ccccc1 | – | – | inactive
Nc1cc(Cl)ccc1SSc1ccc(Cl)cc1N | > 200 | 12 | –
COC(=O)C1CC(c2ccc(Cl)cc2)=NO1 (stereo not given) | > 282 | > 282 | –
O=C(O)c1cc(-c2ccccc2)c(-c2ccccc2)cc1C(c1ccccc1)c1ccccc1 | > 200 | 28.2 | –
C=CCN1C(=O)C/C(=C2/CCC(=O)N2CC=C)C1=O | > 955 | > 955 | –
O=C(O)c1ccc(/C=C/c2ccc(N=Nc3c(O)cc(O)cc3C(=O)O)cc2C(=O)O)cc1 | > 200 | 120 | –

SMILES | EC50 [µM] | IC50 [µM] | outcome
COc1ccc(C(=O)C(CN2CCOCC2)CN2CCOCC2)cc1 | > 200 | 1.32 | –
CCCCCCCC1C(C)c2c([nH]c3ccccc23)C2C(=O)N(c3ccc(OC)cc3)C(=O)C21 (stereo not given) | > 200 | 10.2 | –
COc1ccc2nc3nc(-c4ccccc4)c(-c4ccccc4)nc3nc2c1 | 0.0813 | 3.98 | –
C[N+](C)([O-])CCNc1c2ccccc2nc2cccc([N+](=O)[O-])c12 | > 20 | 0.355 | –
CCCCCC1c2c(cc(C)[nH]c2=O)OC(O)C1CCCC (stereo not given) | > 126 | > 126 | –
Clc1ccc(CN2COc3c(ccc4ccccc34)C2)cc1 | > 200 | 70.8 | –
CCOC(=O)C(CC1COc2ccccc2O1)C(=O)OCC (stereo not given) | – | – | inactive
CC(C)=CCOc1cc(NC(=S)c2ccsc2C)ccc1Cl | 0.0417 | 15.8 | –
CC(=O)NC1=C(C)C(=O)c2c(nc3n2CCC3OC(=O)c2ccccc2)C1=O (stereo not given) | > 200 | 0.977 | –
Cc1ccc(-c2n[nH]c(CC#N)n2)cc1 | > 200 | > 200 | –
O=C(/C(=C/c1ccc(F)cc1)c1ccccc1)c1ccccc1 | > 6.61 | > 6.61 | –
O=C(CNc1nncs1)NO | > 1450 | 162 | –
Cc1noc2c1C(=O)CCC2 | > 1660 | 148 | –
O=C1C2C3CCC(C3)C2S(=O)(=O)C2C3CCC(C3)C12 (stereo not given) | > 200 | > 200 | –
COc1ccc2c(c1OC)C(=O)C2 | > 200 | > 200 | –
O=C(Nc1ccc(Cl)cc1)C(=O)C1=C(O)c2ccccc2OC1 | > 102 | > 102 | –
CCCCCCCCCCCCCCCCCCOc1ccc2c(c1)-c1nc-2nc2[nH]c(nc3nc(nc4[nH]c(n1)c1cc(OCCCCCCCCCCCCCCCCCC)ccc41)-c1ccc(OCCCCCCCCCCCCCCCCCC)cc1-3)c1cc(OCCCCCCCCCCCCCCCCCC)ccc21 | > 8.51 | > 8.51 | –
CCSCCCCCCCCCCC(=O)OCC1OC(n2cc(C)c(=O)[nH]c2=O)CC1O (stereo not given) | > 56.2 | 26.3 | –
COc1ccc(C(C2=C(O)COC2=O)c2cc3c(cc2O)OCO3)cc1OC (stereo not given) | > 200 | 132 | –
Cc1c2c(n(CCc3ccc(Cl)cc3)c1C)NC(c1ccccc1)C(C#N)S2(=O)=O (stereo not given) | > 200 | 8.91 | –
CC1CC(=O)Nc2nc3ccccc3n21 (stereo not given) | > 200 | > 200 | –
CC(C)(CN1CCCCC1)C(=O)/C=C/c1c(Cl)cccc1Cl | > 200 | 1.86 | –

SMILES | EC50 [µM] | IC50 [µM] | outcome
O=C(NNC(=S)Nc1ccccc1)C12CC3CC(CC(C3)C1)C2 | > 200 | 34.7 | –
O=C1C(=Cc2ccc(Cl)c(Cl)c2)C([O-])=C([P+](c2ccccc2)(c2ccccc2)c2ccccc2)C([O-])=C1[P+](c1ccccc1)(c1ccccc1)c1ccccc1 | > 100 | 1.23 | –
O=[N+]([O-])c1ccc(OCc2nc3ccccc3[nH]2)cc1 | > 200 | 87.1 | –
CC(=O)NC(CC(C)C(C)=O)(C(=O)O)C(=O)O (stereo not given) | > 200 | > 200 | –
CS/C(=N\c1nccs1)NC(=O)c1cccc(Cl)c1 | > 58.9 | > 58.9 | –
c1cc2n(n1)CCN2 | > 2290 | 170 | –
C/C(N=NS(=O)(=O)c1ccc([N+](=O)[O-])cc1)=C1\C=CC=CN1O | – | – | inactive
Cn1c(=O)c2c(ncn2CCNC(CO)C(O)c2ccc([N+](=O)[O-])cc2)n(C)c1=O (stereo not given) | > 200 | > 200 | –
COC(=O)C1=C(C(=O)OC)c2cc(OC)ccc2C(C(=S)N(C)C)S1 (stereo not given) | > 200 | > 200 | –
O=C1Nc2ccccc2/C1=c1/sc2nc3ccccc3n2c1=O | – | – | inactive
NC(N)=NN=C(c1ccccc1)c1ccccc1 | > 200 | 1.02 | –
Cc1nc(N)nc(N)c1N1CCN(c2ccc(N)cc2)CC1 | > 200 | 2.82 | –
CC(=O)Oc1ccc2c(c1)c1c(=O)oc(N(C)C)nc1n2Cc1ccccc1 | > 200 | 120 | –
COC(=O)N/N=C(\C)CC(=O)Nc1ccc(Cl)cc1 | > 91.2 | > 91.2 | –
O=P(NC12CC3CC(CC(C3)C1)C2)(N1CC1)N1CC1 | – | – | inactive
S=c1nn[nH]c2ccccc12 | > 219 | > 219 | –
COC(=O)C1Cc2c([nH]c3ccccc23)C(C2CCCCC2)N1 (stereo not given) | – | – | inactive
Cc1cc(NS(=O)(=O)c2ccc(NC(=O)c3cccc4c(=O)c5ccccc5[nH]c34)cc2)no1 | – | – | inactive
N#Cc1ccc(Oc2ccccc2)cc1C#N | > 45.7 | > 45.7 | –
FC(F)(F)c1nc2c(ccc3[nH]c4c(-c5ccccc5)nccc4c32)[nH]1 | > 28.2 | > 28.2 | –
CN1C(=O)c2ccccc2NC(=O)c2cnn(C)c21 | – | – | inactive
CCOC(=O)C(CO)(CC(CO)(C(C)=O)C(=O)OCC)C(C)=O (stereo not given) | > 200 | 27.5 | –
